For orientation: pIC50 means the IC50 on a negative log10 scale, so that one unit is a factor of ten. As usually defined, the inhibition is the change of the read-out against control, counted positive when it falls. Broadly, the pKi is the negative decadic logarithm of the Ki, by convention in mol/L.

From ChEMBL document CHEMBL4765276, “Synthesis of multimeric pyrrolidine iminosugar inhibitors of human β-glucocerebrosidase and α-galactosidase A: First example of a multivalent enzyme activity enhancer for Fabry disease” (Eur J Med Chem, 2020) come the findings set out here.

Molecules are shown by their SMILES. pIC50, pKi: −log10 of the molar value.

Assay [1] deals with T1, Lysosomal acid glucosylceramidase (Homo sapiens, UniProt P04062).
T1 sequence (P04062 whole entry): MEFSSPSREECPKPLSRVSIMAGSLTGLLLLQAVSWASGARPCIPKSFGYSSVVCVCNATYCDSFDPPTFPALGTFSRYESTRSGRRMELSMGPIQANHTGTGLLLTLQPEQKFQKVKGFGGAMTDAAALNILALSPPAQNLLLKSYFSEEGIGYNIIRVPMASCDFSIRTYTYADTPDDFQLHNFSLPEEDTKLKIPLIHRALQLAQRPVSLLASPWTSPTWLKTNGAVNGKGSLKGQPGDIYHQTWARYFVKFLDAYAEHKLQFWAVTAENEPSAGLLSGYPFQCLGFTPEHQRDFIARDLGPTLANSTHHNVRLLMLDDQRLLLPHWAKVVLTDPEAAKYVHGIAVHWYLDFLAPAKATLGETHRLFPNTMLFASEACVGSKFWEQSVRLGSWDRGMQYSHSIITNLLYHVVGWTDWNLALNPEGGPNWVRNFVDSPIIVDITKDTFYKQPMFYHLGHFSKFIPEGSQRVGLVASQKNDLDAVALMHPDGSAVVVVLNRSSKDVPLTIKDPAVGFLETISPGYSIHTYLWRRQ
Description: Inhibition of human recombinant lysosomal GCase using 4-methylumbelliferyl-beta-D-glucopyranoside as substrate preincubated for 45 mins followed by substrate addition and measured after 30 mins by fluorescence spectrophotometric assay.

The target in another assay is T2, Alpha-galactosidase A (Homo sapiens, UniProt P06280).
T2 sequence (P06280 whole entry): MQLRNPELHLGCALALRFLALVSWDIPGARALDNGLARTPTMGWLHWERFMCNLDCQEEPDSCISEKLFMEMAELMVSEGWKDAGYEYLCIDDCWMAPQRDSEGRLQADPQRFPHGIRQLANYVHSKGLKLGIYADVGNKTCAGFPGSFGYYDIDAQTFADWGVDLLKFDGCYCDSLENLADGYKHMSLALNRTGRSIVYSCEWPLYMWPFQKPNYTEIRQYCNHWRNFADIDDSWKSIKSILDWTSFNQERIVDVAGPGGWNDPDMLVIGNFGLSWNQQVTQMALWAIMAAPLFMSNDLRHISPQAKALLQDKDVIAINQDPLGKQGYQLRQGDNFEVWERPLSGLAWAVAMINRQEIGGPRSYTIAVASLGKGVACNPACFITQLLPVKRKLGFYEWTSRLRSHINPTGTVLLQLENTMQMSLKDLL
Nature of the assay: Inhibition of human recombinant lysosomal alpha-GalA using 4-methylumbelliferyl-[…] as substrate preincubated for 45 mins followed by substrate addition and measured after 30 mins by fluorescence spectrophotometric assay.

Assay [2] has as its target T3, Lysosomal acid glucosylceramidase (Homo sapiens) (UniProt P04062).
T3 sequence (whole entry): T1 sequence (P04062 whole entry)
Nature of the assay: Inhibition of human recombinant lysosomal GCase at 1 mM using 4-methylumbelliferyl-beta-D-glucopyranoside as substrate preincubated for 45 mins followed by substrate addition and measured after 30 mins by fluorescence spectrophotometric assay relative to control. The settings on record: time 75.0 min.

Assay [3] has as its target T4, Alpha-galactosidase A (Homo sapiens) (UniProt P06280).
T4 sequence (whole entry): T2 sequence (P06280 whole entry)
Description: Inhibition of human recombinant lysosomal alpha-GalA at 1 mM using 4-methylumbelliferyl-[…] as substrate preincubated for 45 mins followed by substrate addition and measured after 30 mins by fluorescence spectrophotometric assay relative to control. The settings on record: time 75.0 min.

Assay [4] concerns the target T1, Lysosomal acid glucosylceramidase. Nature of the assay: Competitive inhibition of human recombinant lysosomal GCase using 4-methylumbelliferyl-beta-D-glucopyranoside as substrate preincubated for 45 mins followed by substrate addition and measured after 30 mins by fluorescence spectrophotometry based Lineweaver-Burk plot analysis.

Take `O=C(CCCCC(=O)NC(COCc1cn(CCCc2cn(C[C@@H]3NC[C@@H](O)[C@H]3O)nn2)nn1)(COCc1cn(CCCc2cn(C[C@@H]3NC[C@@H](O)[C@H]3O)nn2)nn1)COCc1cn(CCCc2cn(C[C@@H]3NC[C@@H](O)[C@H]3O)nn2)nn1)NC(COCc1cn(CCCc2cn(C[C@@H]3NC[C@@H](O)[C@H]3O)nn2)nn1)(COCc1cn(CCCc2cn(C[C@@H]3NC[C@@H](O)[C@H]3O)nn2)nn1)COCc1cn(CCCc2cn(C[C@@H]3NC[C@@H](O)[C@H]3O)nn2)nn1`: the negative logarithm of the IC50 (pIC50) in assay [1] was 3.48; on Alpha-galactosidase A it was 3.32.

For the compound `NC(COCc1cn(C[C@@H]2NC[C@@H](O)[C@H]2O)nn1)(COCc1cn(C[C@@H]2NC[C@@H](O)[C@H]2O)nn1)COCc1cn(C[C@@H]2NC[C@@H](O)[C@H]2O)nn1`, the inhibition in assay [2] and in assay [3] was below 50% throughout.

`COCc1cn(C[C@H]2NC[C@@H](O)[C@H]2O)nn1`: the inhibition in assay [2] and in assay [3] was below 50% each time.

For the compound `O=C(CCCCC(=O)NC(COCc1cn(C[C@@H]2NC[C@@H](O)[C@H]2O)nn1)(COCc1cn(C[C@@H]2NC[C@@H](O)[C@H]2O)nn1)COCc1cn(C[C@@H]2NC[C@@H](O)[C@H]2O)nn1)NC(COCc1cn(C[C@@H]2NC[C@@H](O)[C@H]2O)nn1)(COCc1cn(C[C@@H]2NC[C@@H](O)[C@H]2O)nn1)COCc1cn(C[C@@H]2NC[C@@H](O)[C@H]2O)nn1`, the inhibition in assay [2] and in assay [3] was below 50% throughout.

`COCc1cn(C[C@@H]2NC[C@@H](O)[C@H]2O)nn1`: the inhibition in assay [2] and in assay [3] was below 50% throughout.

Turning to `NC(COCc1cn(CCOCCOc2ccc(-c3cn(C[C@@H]4NC[C@@H](O)[C@H]4O)nn3)cc2)nn1)(COCc1cn(CCOCCOc2ccc(-c3cn(C[C@@H]4NC[C@@H](O)[C@H]4O)nn3)cc2)nn1)COCc1cn(CCOCCOc2ccc(-c3cn(C[C@@H]4NC[C@@H](O)[C@H]4O)nn3)cc2)nn1`, in assay [1], the pIC50 is 4.42. For the same compound, in assay [3], the inhibition is below 50%. The pKi in assay [4] is 4.26.

As to `O=C(NC(COCc1cn(CCCc2cn(C[C@@H]3NC[C@@H](O)[C@H]3O)nn2)nn1)(COCc1cn(CCCc2cn(C[C@@H]3NC[C@@H](O)[C@H]3O)nn2)nn1)COCc1cn(CCCc2cn(C[C@@H]3NC[C@@H](O)[C@H]3O)nn2)nn1)c1cc(C(=O)NC(COCc2cn(CCCc3cn(C[C@@H]4NC[C@@H](O)[C@H]4O)nn3)nn2)(COCc2cn(CCCc3cn(C[C@@H]4NC[C@@H](O)[C@H]4O)nn3)nn2)COCc2cn(CCCc3cn(C[C@@H]4NC[C@@H](O)[C@H]4O)nn3)nn2)cc(C(=O)NC(COCc2cn(CCCc3cn(C[C@@H]4NC[C@@H](O)[C@H]4O)nn3)nn2)(COCc2cn(CCCc3cn(C[C@@H]4NC[C@@H](O)[C@H]4O)nn3)nn2)COCc2cn(CCCc3cn(C[C@@H]4NC[C@@H](O)[C@H]4O)nn3)nn2)c1`, the inhibition in assay [2] and in assay [3] was below 50% throughout.

Consider `O[C@@H]1[C@H](O)CN[C@H]1Cn1cc(CCCn2cc(COCC(COCc3cn(CCCc4cn(C[C@@H]5NC[C@@H](O)[C@H]5O)nn4)nn3)(COCc3cn(CCCc4cn(C[C@@H]5NC[C@@H](O)[C@H]5O)nn4)nn3)COCc3cn(CCCc4cn(C[C@@H]5NC[C@@H](O)[C@H]5O)nn4)nn3)nn2)nn1`, for which the negative logarithm of the IC50 (pIC50) in assay [1] is 3.77; on Alpha-galactosidase A it was 3.05.

On to `NC(COCc1cn(CCCc2cn(C[C@H]3NC[C@@H](O)[C@H]3O)nn2)nn1)(COCc1cn(CCCc2cn(C[C@H]3NC[C@@H](O)[C@H]3O)nn2)nn1)COCc1cn(CCCc2cn(C[C@H]3NC[C@@H](O)[C@H]3O)nn2)nn1`, for which the inhibition in assay [2] is below 50%. At Alpha-galactosidase A, the pIC50 is 3.51.

As for `CCCc1cn(C[C@@H]2NC[C@@H](O)[C@H]2O)nn1`, the pIC50 in assay [1] is 3.61. Further, the inhibition in assay [3] is below 50%.

In the case of `O=C(NC(COCc1cn(C[C@H]2NC[C@@H](O)[C@H]2O)nn1)(COCc1cn(C[C@H]2NC[C@@H](O)[C@H]2O)nn1)COCc1cn(C[C@H]2NC[C@@H](O)[C@H]2O)nn1)c1cc(C(=O)NC(COCc2cn(C[C@H]3NC[C@@H](O)[C@H]3O)nn2)(COCc2cn(C[C@H]3NC[C@@H](O)[C@H]3O)nn2)COCc2cn(C[C@H]3NC[C@@H](O)[C@H]3O)nn2)cc(C(=O)NC(COCc2cn(C[C@H]3NC[C@@H](O)[C@H]3O)nn2)(COCc2cn(C[C@H]3NC[C@@H](O)[C@H]3O)nn2)COCc2cn(C[C@H]3NC[C@@H](O)[C@H]3O)nn2)c1`, in assay [2], the inhibition is below 50%. At Alpha-galactosidase A, the pIC50 was 3.54.

Regarding `CCCc1cn(C[C@H]2NC[C@@H](O)[C@H]2O)nn1`, the inhibition in assay [2] and in assay [3] was below 50% throughout.

`COc1ccc(-c2cn(C[C@@H]3NC[C@@H](O)[C@H]3O)nn2)cc1`: the pIC50 in assay [1] is 4.41. Moreover, the inhibition in assay [3] is below 50%. For the same compound, in assay [4], the pKi is 4.26.

On to `O=C(NC(COCc1cn(CCOCCOc2ccc(-c3cn(C[C@@H]4NC[C@@H](O)[C@H]4O)nn3)cc2)nn1)(COCc1cn(CCOCCOc2ccc(-c3cn(C[C@@H]4NC[C@@H](O)[C@H]4O)nn3)cc2)nn1)COCc1cn(CCOCCOc2ccc(-c3cn(C[C@@H]4NC[C@@H](O)[C@H]4O)nn3)cc2)nn1)c1cc(C(=O)NC(COCc2cn(CCOCCOc3ccc(-c4cn(C[C@@H]5NC[C@@H](O)[C@H]5O)nn4)cc3)nn2)(COCc2cn(CCOCCOc3ccc(-c4cn(C[C@@H]5NC[C@@H](O)[C@H]5O)nn4)cc3)nn2)COCc2cn(CCOCCOc3ccc(-c4cn(C[C@@H]5NC[C@@H](O)[C@H]5O)nn4)cc3)nn2)cc(C(=O)NC(COCc2cn(CCOCCOc3ccc(-c4cn(C[C@@H]5NC[C@@H](O)[C@H]5O)nn4)cc3)nn2)(COCc2cn(CCOCCOc3ccc(-c4cn(C[C@@H]5NC[C@@H](O)[C@H]5O)nn4)cc3)nn2)COCc2cn(CCOCCOc3ccc(-c4cn(C[C@@H]5NC[C@@H](O)[C@H]5O)nn4)cc3)nn2)c1`, for which, in assay [1], the pIC50 is 5.96. Also, the inhibition in assay [3] is below 50%. The pKi in assay [4] was 5.96.

In the case of `O=C(CCCCC(=O)NC(COCc1cn(C[C@H]2NC[C@@H](O)[C@H]2O)nn1)(COCc1cn(C[C@H]2NC[C@@H](O)[C@H]2O)nn1)COCc1cn(C[C@H]2NC[C@@H](O)[C@H]2O)nn1)NC(COCc1cn(C[C@H]2NC[C@@H](O)[C@H]2O)nn1)(COCc1cn(C[C@H]2NC[C@@H](O)[C@H]2O)nn1)COCc1cn(C[C@H]2NC[C@@H](O)[C@H]2O)nn1`, the inhibition in assay [2] is below 50%. The pIC50 at Alpha-galactosidase A is 3.38.

Take `NC(COCc1cn(C[C@H]2NC[C@@H](O)[C@H]2O)nn1)(COCc1cn(C[C@H]2NC[C@@H](O)[C@H]2O)nn1)COCc1cn(C[C@H]2NC[C@@H](O)[C@H]2O)nn1`: the inhibition in assay [2] and in assay [3] was below 50% throughout.

Turning to `O=C(NC(COCc1cn(C[C@@H]2NC[C@@H](O)[C@H]2O)nn1)(COCc1cn(C[C@@H]2NC[C@@H](O)[C@H]2O)nn1)COCc1cn(C[C@@H]2NC[C@@H](O)[C@H]2O)nn1)c1cc(C(=O)NC(COCc2cn(C[C@@H]3NC[C@@H](O)[C@H]3O)nn2)(COCc2cn(C[C@@H]3NC[C@@H](O)[C@H]3O)nn2)COCc2cn(C[C@@H]3NC[C@@H](O)[C@H]3O)nn2)cc(C(=O)NC(COCc2cn(C[C@@H]3NC[C@@H](O)[C@H]3O)nn2)(COCc2cn(C[C@@H]3NC[C@@H](O)[C@H]3O)nn2)COCc2cn(C[C@@H]3NC[C@@H](O)[C@H]3O)nn2)c1`, the inhibition in assay [2] and in assay [3] was below 50% in each case.

On to `NC(COCc1cn(CCCc2cn(C[C@@H]3NC[C@@H](O)[C@H]3O)nn2)nn1)(COCc1cn(CCCc2cn(C[C@@H]3NC[C@@H](O)[C@H]3O)nn2)nn1)COCc1cn(CCCc2cn(C[C@@H]3NC[C@@H](O)[C@H]3O)nn2)nn1`, for which, in assay [1], the negative logarithm of the IC50 (pIC50) is 3.14. In assay [3], the inhibition was below 50%.

As to `O[C@@H]1[C@H](O)CN[C@@H]1Cn1cc(CCCn2cc(COCC(COCc3cn(CCCc4cn(C[C@H]5NC[C@@H](O)[C@H]5O)nn4)nn3)(COCc3cn(CCCc4cn(C[C@H]5NC[C@@H](O)[C@H]5O)nn4)nn3)COCc3cn(CCCc4cn(C[C@H]5NC[C@@H](O)[C@H]5O)nn4)nn3)nn2)nn1`, the inhibition in assay [2] is below 50%. Also, on Alpha-galactosidase A, the negative-log IC50 (pIC50) is 3.85.
